Results from publication PMC10999543, “Identification of kinase modulators as host-directed therapeutics against intracellular methicillin-resistant Staphylococcus aureus” (Frontiers in Cellular and Infection Microbiology, 2024).
Like-named read-outs stand apart in the source and are kept apart here.

Experiments:
intracellular MRSA = type: cell-based, Staphylococcus aureus; conditions: for %GFP+ rep 1 / z-scoreMRSA+ rep 1: replicate 1; for %GFP+ rep 2 / z-scoreMRSA+ rep 2: replicate 2; for %GFP+ rep 3 / z-scoreMRSA+ rep 3: replicate 3; for z-scoreMRSA+ mean: mean of 3 replicates; as to %GFP+ rep 1: test concentration or dose not given here; as to %GFP+ rep 2: test concentration or dose not given here; as to %GFP+ rep 3: test concentration or dose not given here; as to effect: test concentration or dose not given here; as to z-scoreMRSA+ mean: test concentration or dose not given here; as to z-scoreMRSA+ rep 1: test concentration or dose not given here; as to z-scoreMRSA+ rep 2: test concentration or dose not given here; as to z-scoreMRSA+ rep 3: test concentration or dose not given here
Summary of the method: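 Values are z-scores: GFP-positive HeLa percentage and event count per well against plate statistics, minus the mean DMSO z-score. Wells deviating two-fold from controls were left out of plate means. Infection was at a mean MOI of 6.8, with an overnight compound exposure.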

HeLa cells = experiment: Compound screen by flow cytometry: HeLa cell count as surrogate readout of cell viability (z-scoreHeLa); type: cell-based, human; conditions: for cell count rep 1 / z-scoreHeLa rep 1: replicate 1; for cell count rep 2 / z-scoreHeLa rep 2: replicate 2; for cell count rep 3 / z-scoreHeLa rep 3: replicate 3; for z-scoreHeLa mean: mean of 3 replicates; as to all read-outs here: test concentration or dose not given here
Summary of the method: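 The viability surrogate was the count of fixed HeLa cells by flow cytometry, converted to z-scores against DMSO controls with values deviating two-fold excluded. Before counting, cells had been infected with MRSA for 1 h and cleared of extracellular bacteria with gentamicin. They were then exposed overnight to kinase inhibitors in triplicate.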

[1] = PKIS compound screen raw data, MRSA-infected HeLa cells
[2] = Yes/No: effect without cell death
[3] = compound screen, MRSA-infected HeLa cells
[4] = PKIS compound screen raw data, HeLa cell count
[5] = compound screen, HeLa cell count
[6] = PKIS compound screen, MRSA-infected HeLa cells
[7] = PKIS compound screen, Yes/No call (effect without cell death)
[8] = PKIS compound screen, Yes/No call on z-scoreMRSA+
[9] = PKIS compound screen, HeLa cell count
[10] = PKIS compound screen, Yes/No call on z-scoreHeLa
[11] = PKIS compound screen, Yes/No call
[12] = PKIS compounds raw data, MRSA-infected HeLa cells
[13] = PKIS compounds raw data, HeLa cell count

SMILES	%GFP+ rep 1 (intracellular MRSA; [1]) [%]	%GFP+ rep 2 (intracellular MRSA; [1]) [%]	%GFP+ rep 3 (intracellular MRSA; [1]) [%]	effect (intracellular MRSA; Yes/No call from z-scoreMRSA+)	hit (intracellular MRSA; [2])	z-scoreMRSA+ mean (intracellular MRSA; [3])	z-scoreMRSA+ rep 1 (intracellular MRSA; [3])	z-scoreMRSA+ rep 2 (intracellular MRSA; [3])	z-scoreMRSA+ rep 3 (intracellular MRSA; [3])	cell count rep 1 (HeLa cells; [4])	cell count rep 2 (HeLa cells; [4])	cell count rep 3 (HeLa cells; [4])	cell death (HeLa cells; Yes/No call from z-scoreHeLa)	z-scoreHeLa mean (HeLa cells; [5])	z-scoreHeLa rep 1 (HeLa cells; [5])	z-scoreHeLa rep 2 (HeLa cells; [5])	z-scoreHeLa rep 3 (HeLa cells; [5])	hit (intracellular MRSA; [7])	effect (intracellular MRSA; [11])	z-scoreMRSA+ mean (intracellular MRSA; PKIS compound screen)	also measured
Cc1cc(-c2ccnc(Nc3cccc(C#N)c3)n2)cc(C)c1O [GSK1440913A]	19.8	21.2	19.2	No	No	-0.84	-1.28	-0.34	-0.90	3913	3957	5747	No	-0.09	-0.32	-0.27	0.32	–	–	–	–
Cc1ccc(Nc2ccnc(Nc3cccc(C(N)=O)c3)n2)cc1O [GW575808A]	13.4	14.8	16.1	–	–	–	–	–	–	19398	38059	43165	–	–	–	–	–	No	–	–	z-scoreMRSA+ mean (intracellular MRSA; [6]): -1.22; z-scoreMRSA+ rep 1 (intracellular MRSA; [6]): -1.41; z-scoreMRSA+ rep 2 (intracellular MRSA; [6]): -1.12; z-scoreMRSA+ rep 3 (intracellular MRSA; [6]): -1.12; effect (intracellular MRSA; [8]): No; z-scoreHeLa mean (HeLa cells; [9]): 0.31; z-scoreHeLa rep 1 (HeLa cells; [9]): -0.11; z-scoreHeLa rep 2 (HeLa cells; [9]): 0.61; z-scoreHeLa rep 3 (HeLa cells; [9]): 0.42; cell death (HeLa cells; [10]): No
O=C(Nc1n[nH]c2cc(-c3ccccc3)ccc12)C1CC1 [SB-732941]	–	–	–	–	–	–	–	–	–	–	–	–	–	–	–	–	–	No	No	-0.19	z-scoreMRSA+ rep 1 (intracellular MRSA; PKIS compound screen): -0.15; z-scoreMRSA+ rep 2 (intracellular MRSA; PKIS compound screen): 0.30; z-scoreMRSA+ rep 3 (intracellular MRSA; PKIS compound screen): -0.74; %GFP+ rep 1 (intracellular MRSA; [12]): 12.7%; %GFP+ rep 2 (intracellular MRSA; [12]): 14.4%; %GFP+ rep 3 (intracellular MRSA; [12]): 13.4%; cell death (HeLa cells; [11]): No; z-scoreHeLa mean (HeLa cells; PKIS compound screen): 0.28; z-scoreHeLa rep 1 (HeLa cells; PKIS compound screen): 0.15; z-scoreHeLa rep 2 (HeLa cells; PKIS compound screen): 0.37; z-scoreHeLa rep 3 (HeLa cells; PKIS compound screen): 0.31; cell count rep 1 (HeLa cells; [13]): 4945; cell count rep 2 (HeLa cells; [13]): 4760; cell count rep 3 (HeLa cells; [13]): 7601
COc1ccc(CNC(=O)NC2CCN(c3ccnc(Nc4cc(OC)c(OC)c(OC)c4)n3)C2)cc1 (centres unmarked) [GSK1379748A]	25.5	23.4	23.0	No	No	0.16	0.05	0.19	0.24	5560	4556	5664	No	0.45	0.87	0.20	0.27	–	–	–	–
O=C(Nc1n[nH]c2cc(-c3cccc(F)c3F)ccc12)C1CC1 [SB-733894]	21.8	21.7	19.3	No	No	-0.63	-0.81	-0.22	-0.87	4632	4442	4898	No	0.0318	0.20	0.11	-0.22	–	–	–	–
CCn1c(-c2nonc2N)nc2c(C#CC(C)(C)O)nc(OC[C@@H](N)c3ccccc3)cc21 [GSK938890A]	12.8	14.8	15.1	–	–	–	–	–	–	14299	35410	42196	–	–	–	–	–	No	–	–	z-scoreMRSA+ mean (intracellular MRSA; [6]): -1.38; z-scoreMRSA+ rep 1 (intracellular MRSA; [6]): -1.60; z-scoreMRSA+ rep 2 (intracellular MRSA; [6]): -1.12; z-scoreMRSA+ rep 3 (intracellular MRSA; [6]): -1.43; effect (intracellular MRSA; [8]): No; z-scoreHeLa mean (HeLa cells; [9]): -0.17; z-scoreHeLa rep 1 (HeLa cells; [9]): -0.88; z-scoreHeLa rep 2 (HeLa cells; [9]): 0.12; z-scoreHeLa rep 3 (HeLa cells; [9]): 0.27; cell death (HeLa cells; [10]): No
Cn1cc(-c2ccc3c(c2)CCN3C(=O)Cc2cc(F)cc(F)c2F)c2c(N)ncnc21 [GSK2634140A]	26.0	26.7	24.3	No	No	0.60	0.17	0.99	0.63	2359	2548	2693	No	-1.47	-1.44	-1.35	-1.61	–	–	–	–
Cn1cc(-c2ccc3c(c2)CCN3C(=O)Cc2cccc(F)c2)c2c(N)ncnc21 [GSK2603358A]	–	–	–	–	–	–	–	–	–	–	–	–	–	–	–	–	–	No	No	0.42	z-scoreMRSA+ rep 1 (intracellular MRSA; PKIS compound screen): -0.03; z-scoreMRSA+ rep 2 (intracellular MRSA; PKIS compound screen): 0.66; z-scoreMRSA+ rep 3 (intracellular MRSA; PKIS compound screen): 0.62; %GFP+ rep 1 (intracellular MRSA; [12]): 26.9%; %GFP+ rep 2 (intracellular MRSA; [12]): 29.5%; %GFP+ rep 3 (intracellular MRSA; [12]): 30.6%; cell death (HeLa cells; [11]): No; z-scoreHeLa mean (HeLa cells; PKIS compound screen): 0.76; z-scoreHeLa rep 1 (HeLa cells; PKIS compound screen): -0.12; z-scoreHeLa rep 2 (HeLa cells; PKIS compound screen): 0.60; z-scoreHeLa rep 3 (HeLa cells; PKIS compound screen): 1.79; cell count rep 1 (HeLa cells; [13]): 5847; cell count rep 2 (HeLa cells; [13]): 6919; cell count rep 3 (HeLa cells; [13]): 8427
CCn1c(-c2nonc2N)nc2c(C#CC(C)(C)O)nc(OCCNC)cc21 [GSK949675A]	–	–	–	–	–	–	–	–	–	–	–	–	–	–	–	–	–	No	No	0.28	z-scoreMRSA+ rep 1 (intracellular MRSA; PKIS compound screen): 0.59; z-scoreMRSA+ rep 2 (intracellular MRSA; PKIS compound screen): 0.84; z-scoreMRSA+ rep 3 (intracellular MRSA; PKIS compound screen): -0.59; %GFP+ rep 1 (intracellular MRSA; [12]): 15.0%; %GFP+ rep 2 (intracellular MRSA; [12]): 16.0%; %GFP+ rep 3 (intracellular MRSA; [12]): 13.9%; cell death (HeLa cells; [11]): No; z-scoreHeLa mean (HeLa cells; PKIS compound screen): 1.02; z-scoreHeLa rep 1 (HeLa cells; PKIS compound screen): 0.13; z-scoreHeLa rep 2 (HeLa cells; PKIS compound screen): 1.22; z-scoreHeLa rep 3 (HeLa cells; PKIS compound screen): 1.70; cell count rep 1 (HeLa cells; [13]): 4918; cell count rep 2 (HeLa cells; [13]): 5879; cell count rep 3 (HeLa cells; [13]): 10520
c1ccc(Oc2ccc(Nc3ccnc4cc(-c5ccc(CN6CCNCC6)o5)ccc34)cc2)nc1 [GW567142A]	18.2	19.4	17.4	–	–	–	–	–	–	37910	29813	27656	–	–	–	–	–	No	–	–	z-scoreMRSA+ mean (intracellular MRSA; [6]): -0.40; z-scoreMRSA+ rep 1 (intracellular MRSA; [6]): -0.15; z-scoreMRSA+ rep 2 (intracellular MRSA; [6]): -0.00228; z-scoreMRSA+ rep 3 (intracellular MRSA; [6]): -1.05; effect (intracellular MRSA; [8]): No; z-scoreHeLa mean (HeLa cells; [9]): 1.26; z-scoreHeLa rep 1 (HeLa cells; [9]): 1.31; z-scoreHeLa rep 2 (HeLa cells; [9]): 0.78; z-scoreHeLa rep 3 (HeLa cells; [9]): 1.70; cell death (HeLa cells; [10]): No
Cc1cc(Cl)cc2c1NC(=O)C2=NNc1ccc(S(N)(=O)=O)cc1 [GW279320X]	–	–	–	–	–	–	–	–	–	–	–	–	–	–	–	–	–	No	No	4.85	z-scoreMRSA+ rep 1 (intracellular MRSA; PKIS compound screen): 4.78; z-scoreMRSA+ rep 2 (intracellular MRSA; PKIS compound screen): 5.69; z-scoreMRSA+ rep 3 (intracellular MRSA; PKIS compound screen): 4.09; %GFP+ rep 1 (intracellular MRSA; [12]): 28.1%; %GFP+ rep 2 (intracellular MRSA; [12]): 30.5%; %GFP+ rep 3 (intracellular MRSA; [12]): 29.7%; cell death (HeLa cells; [11]): No; z-scoreHeLa mean (HeLa cells; PKIS compound screen): 1.27; z-scoreHeLa rep 1 (HeLa cells; PKIS compound screen): 0.91; z-scoreHeLa rep 2 (HeLa cells; PKIS compound screen): 1.43; z-scoreHeLa rep 3 (HeLa cells; PKIS compound screen): 1.47; cell count rep 1 (HeLa cells; [13]): 5783; cell count rep 2 (HeLa cells; [13]): 6163; cell count rep 3 (HeLa cells; [13]): 10033
Cc1ccc(C(=O)Nc2ccc(Nc3ccnc4cc(-c5ccccn5)ccc34)cc2O)cc1 [GW440146A]	19.0	18.0	19.2	No	No	-1.16	-1.46	-1.12	-0.90	4799	4726	6030	No	0.38	0.32	0.33	0.50	–	–	–	–
COc1cccc(CC(=O)N2CCc3cc(-c4cn(C)c5ncnc(N)c45)ccc32)c1 [GSK2608899A]	26.6	25.5	23.7	No	No	0.49	0.31	0.70	0.45	3096	2695	3225	No	-1.14	-0.91	-1.24	-1.27	–	–	–	–
